According to PubChem BioAssay (NCI):
Where “and” joins values, the source holds several entries; their conditions need not be identical. Equal values may be shown once.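 Five compound concentrations were applied to cells in 96-well plates for 48 hours; endpoints were derived by simple linear interpolation of the resulting dose-response curve. GI50 is the concentration that inhibits growth by half. At the TGI there is no net growth.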

Key:
Assay in all cases: NCI tumour cell line growth inhibition, 48 h
786-0 renal = test system: 786-0 renal
HCT-116 colon = test system: HCT-116 colon
HCT-15 colon = test system: HCT-15 colon
HT29 colon = test system: HT29 colon
NCI-H460 lung = test system: NCI-H460 lung
OVCAR-4 ovarian = test system: OVCAR-4 ovarian
SF-539 CNS = test system: SF-539 CNS
T-47D breast = test system: T-47D breast
UACC-62 melanoma = test system: UACC-62 melanoma
UO-31 renal = test system: UO-31 renal

## C(=NCCN1CCOCC1)=NC1CCCCC1
786-0 renal
  TGI: > 100 µM
HCT-116 colon
  TGI: > 100 µM
HCT-15 colon
  TGI: > 100 µM
HT29 colon
  TGI: > 100 µM
NCI-H460 lung
  TGI: > 100 µM
OVCAR-4 ovarian
  TGI: > 100 µM
SF-539 CNS
  TGI: > 100 µM
T-47D breast
  TGI: > 100 µM
UACC-62 melanoma
  TGI: > 100 µM
UO-31 renal
  TGI: > 100 µM

## CN(C)CCNC(=O)c1cccc2ccc(-c3ccc(O)cc3)nc12
786-0 renal
  TGI: 14.4 µM
HCT-116 colon
  GI50: 0.879 µM
  TGI: 2.78 µM and 10.7 µM
HCT-15 colon
  TGI: 14.4 µM
HT29 colon
  TGI: 14.5 µM and 17.2 µM
NCI-H460 lung
  GI50: 0.637 µM
  TGI: 2.85 µM and 2.99 µM
OVCAR-4 ovarian
  TGI: 10.4 µM and 12.2 µM
SF-539 CNS
  TGI: 15.1 µM and 13.9 µM
T-47D breast
  TGI: 6.98 µM
UACC-62 melanoma
  GI50: 1.6 µM
  TGI: 3.16 µM and 3.83 µM
UO-31 renal
  GI50: 1.58 µM
  TGI: 7.35 µM and 5.12 µM

## O=C(O)COc1ccc2c(=O)c3sc4c(=O)c5ccccc5c(=O)c4c3c(=O)c2c1
786-0 renal
  GI50: 21.8 µM
  TGI: 76.1 µM
HCT-116 colon
  GI50: 15.7 µM
  TGI: 63.3 µM
HCT-15 colon
  GI50: 4.41 µM
  TGI: 18.2 µM
HT29 colon
  GI50: 22 µM
  TGI: > 100 µM
NCI-H460 lung
  GI50: 3.51 µM
  TGI: 10.4 µM
OVCAR-4 ovarian
  GI50: 14.1 µM
  TGI: 27.3 µM
SF-539 CNS
  GI50: 13.2 µM
  TGI: 26.1 µM
T-47D breast
  GI50: 21.4 µM
  TGI: 50.9 µM
UACC-62 melanoma
  GI50: 12 µM
  TGI: 39.4 µM
UO-31 renal
  GI50: 11.8 µM
  TGI: 30.1 µM

## Cc1cc(Nc2ccc(NC(=O)c3ccc(Nc4ccnc5ccccc45)cc3)cc2)nc(N)n1
786-0 renal
  GI50: 3.06 µM
  TGI: > 100 µM
HCT-15 colon
  GI50: 6.16 µM
  TGI: > 100 µM
UACC-62 melanoma
  GI50: 2.33 µM
  TGI: 5.84 µM
UO-31 renal
  GI50: 50.9 µM
  TGI: > 100 µM

## COc1cccc(C2CC(C)(O)Oc3cc4c(cc32)OCO4)c1O (stereo not drawn)
786-0 renal
  TGI: > 100 µM
HCT-116 colon
  TGI: > 69.4 µM
HCT-15 colon
  TGI: > 72.5 µM
HT29 colon
  TGI: 50.6 µM
NCI-H460 lung
  TGI: > 92.7 µM
OVCAR-4 ovarian
  TGI: > 100 µM
SF-539 CNS
  TGI: 38.5 µM
T-47D breast
  TGI: > 100 µM
UACC-62 melanoma
  TGI: > 75.9 µM
UO-31 renal
  TGI: 97.9 µM

## Cc1ccc(S(=O)(=O)Nc2ccccc2C=O)cc1
786-0 renal
  TGI: 35.9 µM
HCT-116 colon
  TGI: 28 µM
HCT-15 colon
  TGI: 31.6 µM
HT29 colon
  TGI: 49.3 µM
NCI-H460 lung
  TGI: 47 µM
OVCAR-4 ovarian
  TGI: > 100 µM
SF-539 CNS
  TGI: 5.08 µM
T-47D breast
  TGI: 72.7 µM
UACC-62 melanoma
  TGI: 27 µM
UO-31 renal
  TGI: 26.8 µM

## c1ccc2cc(-c3cc4ccccc4s3)ccc2c1
786-0 renal
  TGI: > 100 µM
HCT-116 colon
  TGI: > 100 µM
HCT-15 colon
  TGI: > 100 µM
HT29 colon
  TGI: > 100 µM
NCI-H460 lung
  TGI: > 100 µM
OVCAR-4 ovarian
  TGI: > 100 µM
SF-539 CNS
  TGI: > 100 µM
UACC-62 melanoma
  TGI: > 100 µM
UO-31 renal
  TGI: > 100 µM

## CC(C)(C)NNC(=O)CCn1[nH]c(=O)c(Cl)c(Cl)c1=O
786-0 renal
  TGI: > 100 µM
HCT-15 colon
  TGI: > 100 µM
HT29 colon
  TGI: > 100 µM
NCI-H460 lung
  TGI: > 100 µM
OVCAR-4 ovarian
  TGI: > 100 µM
SF-539 CNS
  TGI: > 100 µM
UACC-62 melanoma
  TGI: > 100 µM
UO-31 renal
  TGI: > 100 µM

## O=C1CCC(Cl)=CC2CCCN12 (stereo not drawn)
786-0 renal
  TGI: > 100 µM
HCT-116 colon
  TGI: > 100 µM
HCT-15 colon
  TGI: > 100 µM
HT29 colon
  TGI: > 100 µM
NCI-H460 lung
  TGI: > 100 µM
SF-539 CNS
  TGI: > 100 µM
UACC-62 melanoma
  TGI: > 100 µM
UO-31 renal
  TGI: > 100 µM

## CC1(C)COC(C2(C)C(=O)C=C(c3ccccc3)c3ccccc32)=N1 (stereo not drawn)
786-0 renal
  TGI: > 100 µM
HCT-116 colon
  TGI: > 100 µM
HCT-15 colon
  TGI: > 100 µM
HT29 colon
  TGI: 99 µM
NCI-H460 lung
  TGI: > 100 µM
OVCAR-4 ovarian
  TGI: > 100 µM
SF-539 CNS
  TGI: > 100 µM
UACC-62 melanoma
  TGI: > 100 µM
UO-31 renal
  TGI: 98.6 µM

## CC(=O)CCn1ncc(Cl)c(Cl)c1=O
786-0 renal
  TGI: 54.9 µM
HCT-116 colon
  TGI: 27.9 µM
HCT-15 colon
  TGI: 20.5 µM
HT29 colon
  TGI: 34.1 µM
NCI-H460 lung
  TGI: 42.2 µM
OVCAR-4 ovarian
  TGI: 21.9 µM
SF-539 CNS
  TGI: 38.5 µM
UACC-62 melanoma
  TGI: 33.3 µM
UO-31 renal
  TGI: 34.6 µM

## CC(C)N(C(=O)C12C3C4C1C1C4(C#N)C3C12C#N)C(C)C (stereo not drawn)
786-0 renal
  TGI: > 100 µM
HCT-15 colon
  TGI: > 100 µM
HT29 colon
  TGI: > 100 µM
NCI-H460 lung
  TGI: > 100 µM
OVCAR-4 ovarian
  TGI: > 100 µM
SF-539 CNS
  TGI: > 100 µM
UACC-62 melanoma
  TGI: > 100 µM
UO-31 renal
  TGI: > 100 µM

## O=CCC1CCCCC1
786-0 renal
  TGI: > 100 µM
HCT-116 colon
  TGI: > 100 µM
HCT-15 colon
  TGI: > 100 µM
NCI-H460 lung
  TGI: > 100 µM
OVCAR-4 ovarian
  TGI: > 100 µM
SF-539 CNS
  TGI: > 100 µM
T-47D breast
  TGI: > 100 µM
UO-31 renal
  TGI: > 100 µM

## NC(=S)N/N=C/C(=O)O
786-0 renal
  GI50: > 100 µM
  TGI: > 100 µM
HCT-116 colon
  GI50: 14.7 µM
  TGI: > 100 µM
HCT-15 colon
  GI50: > 100 µM
  TGI: > 100 µM
HT29 colon
  GI50: > 100 µM
  TGI: > 100 µM
NCI-H460 lung
  GI50: > 100 µM
  TGI: > 100 µM
OVCAR-4 ovarian
  GI50: 37.5 µM
  TGI: > 100 µM
SF-539 CNS
  GI50: > 100 µM
  TGI: > 100 µM
T-47D breast
  GI50: 21.3 µM
  TGI: > 100 µM
UO-31 renal
  GI50: > 100 µM
  TGI: > 100 µM

## Oc1ccc(Nc2ncnc3c2sc2ncccc23)cc1
786-0 renal
  GI50: < 0.01 µM
HCT-116 colon
  GI50: < 0.01 µM
  TGI: > 100 µM
HCT-15 colon
  GI50: 0.088 µM
  TGI: > 100 µM
HT29 colon
  GI50: 0.0496 µM
  TGI: > 100 µM
NCI-H460 lung
  GI50: < 0.01 µM
  TGI: > 100 µM
OVCAR-4 ovarian
  GI50: > 88.7 µM
  TGI: > 100 µM
SF-539 CNS
  GI50: 0.0266 µM
  TGI: 0.293 µM
UACC-62 melanoma
  GI50: 0.0379 µM
  TGI: 46.1 µM
UO-31 renal
  GI50: 0.0241 µM
  TGI: 5.02 µM

## COc1ccc2occ(CCC(=O)O)c2c1
786-0 renal
  TGI: > 100 µM
HCT-116 colon
  TGI: > 100 µM
HCT-15 colon
  TGI: > 100 µM
HT29 colon
  TGI: > 100 µM
NCI-H460 lung
  TGI: > 100 µM
OVCAR-4 ovarian
  TGI: > 100 µM
SF-539 CNS
  TGI: > 100 µM
UACC-62 melanoma
  TGI: > 100 µM

## O=C1CCC2(c3ccc(Cl)cc3)Nc3ncccc3N12 (stereo not drawn)
786-0 renal
  TGI: > 100 µM
HCT-15 colon
  TGI: > 100 µM
HT29 colon
  TGI: > 100 µM
NCI-H460 lung
  TGI: > 100 µM
OVCAR-4 ovarian
  TGI: > 100 µM
SF-539 CNS
  TGI: > 100 µM
UACC-62 melanoma
  TGI: > 100 µM
UO-31 renal
  TGI: > 100 µM

## CCC12CCCN(Cc3ccccc3)C1c1c(n(C)c3ccccc13)CC2 (stereo not drawn)
786-0 renal
  TGI: > 253 µM
HCT-116 colon
  TGI: > 253 µM
HCT-15 colon
  TGI: > 253 µM
HT29 colon
  TGI: > 253 µM
NCI-H460 lung
  TGI: > 253 µM
SF-539 CNS
  TGI: > 253 µM
UACC-62 melanoma
  TGI: > 253 µM

## CCC(=O)CC(=O)CCC(=O)Nc1cc(C)ccc1C
786-0 renal
  TGI: > 100 µM
HCT-116 colon
  TGI: > 100 µM
HCT-15 colon
  TGI: > 100 µM
HT29 colon
  TGI: > 100 µM
NCI-H460 lung
  TGI: > 100 µM
SF-539 CNS
  TGI: > 100 µM
UACC-62 melanoma
  TGI: > 100 µM
UO-31 renal
  TGI: > 100 µM

## CCCCOC(=O)CNC(=O)OC/C=C/C#CC#C/C=C/COC(=O)NCC(=O)OCCCC
786-0 renal
  GI50: > 10 µM
  TGI: > 100 µM
HCT-116 colon
  GI50: > 100 µM
  TGI: > 100 µM
HCT-15 colon
  TGI: > 10 µM
HT29 colon
  GI50: > 100 µM
  TGI: > 100 µM
NCI-H460 lung
  GI50: > 100 µM
  TGI: > 100 µM
OVCAR-4 ovarian
  GI50: > 100 µM
  TGI: > 100 µM
SF-539 CNS
  GI50: > 100 µM
  TGI: > 100 µM
UACC-62 melanoma
  GI50: > 100 µM
  TGI: > 100 µM
UO-31 renal
  GI50: > 100 µM
  TGI: > 100 µM

## O=c1/c(=C/c2ccccc2[N+](=O)[O-])sc2nnc(-c3ccco3)n12
786-0 renal
  TGI: > 100 µM
HCT-116 colon
  TGI: 58.8 µM
HCT-15 colon
  TGI: 75.8 µM
HT29 colon
  TGI: > 100 µM
NCI-H460 lung
  TGI: 56.2 µM
OVCAR-4 ovarian
  TGI: 40 µM
SF-539 CNS
  TGI: 33.9 µM
UACC-62 melanoma
  TGI: > 100 µM
UO-31 renal
  TGI: 96.8 µM
